In patent publication US20080021030A1, “Substituted Pyrazoles As Ppar Agonists” (priority 2003, published 2008):
Counter-ions that a name gives are not always drawn. Each block holds one molecule with its values, some of them ahead of it.

Assays:
Experiment in all cases: Transient transfection (transactivation) assay in CV-1 cells, GAL4-PPAR LBD chimera, SPAP reporter
Assay type in all cases: cell-based
hPPAR delta = molecular target: T1, hPPAR delta (Homo sapiens, UniProt Q03181); details: read-out: EC50 μM HPPARδ
T1 construct: expressed in transfected cells; host or cells: CV-1 cells
T1 sequence (Q03181 211-439 limits assumed): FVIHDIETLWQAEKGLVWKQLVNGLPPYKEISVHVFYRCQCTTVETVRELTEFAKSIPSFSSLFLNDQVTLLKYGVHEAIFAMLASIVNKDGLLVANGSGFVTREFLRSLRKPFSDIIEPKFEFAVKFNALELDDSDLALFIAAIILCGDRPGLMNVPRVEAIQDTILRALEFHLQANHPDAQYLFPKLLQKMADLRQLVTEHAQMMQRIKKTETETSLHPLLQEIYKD
Source text: (§1) Compounds were screened for functional potency in transient transfection assays in CV-1 cells for their ability to activate the PPAR subtypes (transactivation assay). A previously established chimeric receptor system was utilized to allow comparison of the relative transcriptional activity of the receptor subtypes on the same target gene and to prevent endogenous receptor activation from complicating the interpretation of results. See, for example, Lehmann, J. M.; Moore, L. B.; Smith-Oliver, T. A.; Wilkison, W. O.; Willson, T. M.; Kliewer, S. A., An antidiabetic thiazolidinedione is a high affinity ligand for peroxisome proliferator-activated receptor gamma (PPARgamma), J. Biol. Chem., 270, 12953-6 (1995). The ligand binding domains for murine and human PPAR alpha, PPAR gamma, and PPAR delta were each fused to the yeast transcription factor GAL4 DNA binding domain. CV-1 cells were transiently transfected with expression vectors for the respective PPAR chimera along with a reporter construct containing five copies of the GAL4 DNA binding site driving expression of secreted placental alkaline phosphatase (SPAP) and beta-galactosidase. After 16 h, the medium was exchanged to DME medium supplemented with 10% delipidated fetal calf serum and the test compound at the appropriate concentration. After an additional 24 h, cell extracts were prepared and assayed for alkaline phosphatase and β-galactosidase activity. Alkaline phosphatase activity was corrected for transfection efficiency using the beta-galactosidase activity as an internal standard (see, for example, Kliewer, S. A., et. al. Cell 83, 813-819 (1995)). Rosiglitazone (BRL 49653) was used as a positive control in the hPPAR gamma assay. The positive control in the hPPAR alpha assays was 2-4-[2-(3-[4-fluorophenyl]-1-heptylureido)ethyl]-phenoxy-(2-methyl propionic acid (WO 97/36579). The positive control for PPAR delta assays was 2-{2-methyl-4-[({4-methyl-2-{trifluoromethyl)phenyl]-1,3-thiazol-5-yl}methyl)sulfanyl]phenoxy}acetic acid (WO 01/00603). The positive control was (5-{4-[2-(Methyl-pyridin-2-yl-amino)-ethoxy]-benzyl}-thiazolidine-2,4-dione (J. Med. Chem. 1994, 37(23), 3977), for PPAR gamma.
(§2) Activities in three hPPAR subtypes are reported in the table and are expressed in micromolar.

hPPAR alpha = molecular target: T2, hPPAR alpha (Homo sapiens, UniProt Q07869); details: read-out: EC50 μM HPPARα
T2 construct: expressed in transfected cells; host or cells: CV-1 cells
T2 sequence (Q07869 239-466 limits assumed): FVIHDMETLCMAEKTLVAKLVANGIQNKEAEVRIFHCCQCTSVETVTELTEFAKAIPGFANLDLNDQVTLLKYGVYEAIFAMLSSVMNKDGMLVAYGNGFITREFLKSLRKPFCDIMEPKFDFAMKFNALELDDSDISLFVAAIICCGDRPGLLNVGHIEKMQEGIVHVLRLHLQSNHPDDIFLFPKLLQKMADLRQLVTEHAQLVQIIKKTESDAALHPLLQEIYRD
Source text: as §1, §2

hPPAR gamma = molecular target: T3, hPPAR gamma (Homo sapiens, UniProt P37231); details: read-out: EC50 μM HPPARγ
T3 construct: expressed in transfected cells; host or cells: CV-1 cells
T3 sequence (P37231 238-503 limits assumed): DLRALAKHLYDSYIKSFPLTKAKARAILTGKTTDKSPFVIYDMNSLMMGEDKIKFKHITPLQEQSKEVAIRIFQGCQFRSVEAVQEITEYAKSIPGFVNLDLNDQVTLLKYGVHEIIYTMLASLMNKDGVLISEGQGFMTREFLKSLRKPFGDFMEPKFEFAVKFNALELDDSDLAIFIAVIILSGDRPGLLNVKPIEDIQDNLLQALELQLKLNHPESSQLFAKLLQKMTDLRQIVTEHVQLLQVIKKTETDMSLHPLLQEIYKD
Source text: Compounds were screened for functional potency in transient transfection assays in CV-1 cells for their ability to activate the PPAR subtypes (transactivation assay). A previously established chimeric receptor system was utilized to allow comparison of the relative transcriptional activity of the receptor subtypes on the same target gene and to prevent endogenous receptor activation from complicating the interpretation of results. […] The ligand binding domains for murine and human PPAR alpha, PPAR gamma, and PPAR delta were each fused to the yeast transcription factor GAL4 DNA binding domain. CV-1 cells were transiently transfected with expression vectors for the respective PPAR chimera along with a reporter construct containing five copies of the GAL4 DNA binding site driving expression of secreted placental alkaline phosphatase (SPAP) and beta-galactosidase. After 16 h, the medium was exchanged to DME medium supplemented with 10% delipidated fetal calf serum and the test compound at the appropriate concentration. After an additional 24 h, cell extracts were prepared and assayed for alkaline phosphatase and β-galactosidase activity.

SMILES: CCCCc1ccc(-c2cc(C(=O)NCc3ccc(OC(C)(C)C(=O)O)c(C)c3)nn2C)cc1 [Example 29, 2-((4-[({[5-(4-butylphenyl)-1-methyl-1H-pyrazol-3-yl]carbonyl}amino)methyl]-2-methylphenyl}oxy)-2-methylpropanoic acid]
EC50 (hPPAR delta): > 25 µM
EC50 (hPPAR alpha): 0.029 µM
EC50 (hPPAR gamma): 0.014 µM

SMILES: COc1cc(CNC(=O)c2cc(-c3ccc(C(C)(C)C)cc3)nn2C)ccc1OC(C)(C)C(=O)O [Example 12, 2-{[4-{[({3-[4-(1,1-dimethylethyl)phenyl]-1-methyl-1H-prazol-5-yl}carbonyl)amino]methyl}-2-(methyloxy)phenyl]oxy}-2-methyl propanoic acid]
EC50 (hPPAR delta): > 10 µM
EC50 (hPPAR alpha): 1.05 µM
EC50 (hPPAR gamma): 0.432 µM

SMILES: CCCc1cc(CNC(=O)c2cc(-c3ccc(C(C)(C)C)cc3)nn2C)ccc1OC(C)(C)C(=O)O [Example 4, 2-[(4-{[{(3-[4-(1,1-dimethylethyl)phenyl]-1-methyl-1H-pyrazol-5-yl}carbonyl)amino]methyl}-2-propylphenyl)oxy]-2-methylpropanoic acid]
EC50 (hPPAR delta): 1.09 µM
EC50 (hPPAR alpha): 0.066 µM
EC50 (hPPAR gamma): 0.072 µM

SMILES: Cc1ccc(CNC(=O)c2cc(-c3ccc(C(C)(C)C)cc3)nn2CCc2ccccc2)cc1OC(C)(C)C(=O)O [Example 51, 2-({5-[({[3-[4-(1,1-dimethylethyl)phenyl]-1-(2-phenylethyl)-1H-pyrazol-5-yl]carbonyl}amino)methyl]-2-methylphenyl}oxy)-2-methylpropanoic acid]
EC50 (hPPAR delta): > 25 µM
EC50 (hPPAR alpha): 0.3 µM
EC50 (hPPAR gamma): 0.14 µM

SMILES: Cc1cc(CNC(=O)c2cc(-c3ccc(C(C)(C)C)cc3)nn2Cc2ccccc2)ccc1OC(C)(C)C(=O)O [Example 61, 2-({4-[({[3-[4-(1,1-dimethylethyl)phenyl]-1-(phenylmethyl)-1H-pyrazol-5-yl]carbonyl}amino)methyl]-2-methylphenyl}oxy)-2-methylpropanoic acid]
EC50 (hPPAR delta): 2.42 µM
EC50 (hPPAR alpha): 0.115 µM
EC50 (hPPAR gamma): 0.147 µM

SMILES: CCn1nc(-c2ccc(C(C)(C)C)cc2)cc1C(=O)NCc1ccc(OC(C)(C)C(=O)O)c(OC)c1 [Example 5]
EC50 (hPPAR delta): > 10 µM
EC50 (hPPAR alpha): 0.301 µM
EC50 (hPPAR gamma): 0.444 µM

SMILES: Cc1cc(CNC(=O)c2cc(-c3cccc(N4CCCCC4)c3)n(C)n2)ccc1OC(C)(C)C(=O)O [Example 40, 2-methyl-2-[(2-methyl-4-{[({1-methyl-5-[3-(1-piperidinyl)phenyl]-1H-pyrazol-3-yl}carbonyl)amino]methyl}phenyl)oxy]propanoic acid]
EC50 (hPPAR delta): 5.59 µM
EC50 (hPPAR alpha): 0.293 µM
EC50 (hPPAR gamma): 0.187 µM

SMILES: CCn1nc(-c2ccc(C(C)(C)C)cc2)cc1C(=O)NCc1ccc(OC(C)(C)C(=O)O)c(C)c1 [Example 15, 2-[(4-{[({3-[4-(1,1-dimethylethyl)phenyl]-1-ethyl-1H-pyrazol-5-yl}carbonyl)amino]methyl}-2-methylphenyl)oxy]-2-methyl propanoic acid]
EC50 (hPPAR delta): 2.44 µM
EC50 (hPPAR alpha): 0.075 µM
EC50 (hPPAR gamma): 0.024 µM

SMILES: Cc1cc(CNC(=O)c2cc(-c3ccc(C(C)(C)C)cc3)n(CCN3CCOCC3)n2)ccc1OC(C)(C)C(=O)O [Example 54, 2-[(4-{[({5-[4-(1,1-dimethylethyl)phenyl]-1-[2-(4-morpholinyl)ethyl]-1H-pyrazol-3-yl}carbonyl)amino]methyl}-2-methylphenyl)oxy]-2-methyl propanoic acid hydrochloride]
EC50 (hPPAR delta): > 25 µM
EC50 (hPPAR alpha): 0.571 µM
EC50 (hPPAR gamma): > 25 µM

SMILES: Cc1cc(CNC(=O)c2cc(-c3ccc(CC(C)C)cc3)nn2C)ccc1OC(C)(C)C(=O)O [Example 8, 2-methyl-2-[(2-methyl-4-{[({1-methyl-3-[4-(2-methylpropyl)phenyl]-1H-pyrazol-5-yl}carbonyl)amino]methyl}phenyl)oxy]propanoic acid]
EC50 (hPPAR delta): 1.07 µM
EC50 (hPPAR alpha): 0.051 µM
EC50 (hPPAR gamma): 0.059 µM

More lines, now with the values ahead:

EC50 (hPPAR delta): > 25 µM
EC50 (hPPAR alpha): 0.836 µM
EC50 (hPPAR gamma): 0.049 µM
SMILES: Cc1cc(CNC(=O)c2cc(-c3ccc(N4CCCCC4)cc3)nn2C)ccc1OC(C)(C)C(=O)O [Example 45]

EC50 (hPPAR delta): > 25 µM
EC50 (hPPAR alpha): 0.257 µM
EC50 (hPPAR gamma): 0.138 µM
SMILES: Cc1cc(CNC(=O)Cc2cc(-c3ccc(C(C)(C)C)cc3)nn2C)ccc1OC(C)(C)C(=O)O [Example 43, 2-[(4-{[({3-[4-(1,1-dimethylethyl)phenyl]-1-methyl-1H-pyrazol-5-yl}acetyl)amino]methyl}-2-methylphenyl)oxy]-2-methylpropanoic acid]

EC50 (hPPAR delta): 0.82 µM
EC50 (hPPAR alpha): 0.018 µM
EC50 (hPPAR gamma): 0.044 µM
SMILES: Cc1cc(CNC(=O)c2cc(-c3ccc(C(C)C)cc3)nn2C)ccc1OC(C)(C)C(=O)O [Example 2]

EC50 (hPPAR delta): > 25 µM
EC50 (hPPAR alpha): 0.504 µM
EC50 (hPPAR gamma): 0.151 µM
SMILES: Cc1cc(CNC(=O)c2cc(-c3cccc(N4CCCC4)c3)n(C)n2)ccc1OC(C)(C)C(=O)O [Example 41, 2-methyl-2-[(2-methyl-4-{[({1-methyl-5-[3-(1-pyrrolidinyl)phenyl]-1H-pyrazol-3-yl}carbonyl)amino]methyl}phenyl)oxy]propanoic acid]

EC50 (hPPAR delta): > 10 µM
EC50 (hPPAR alpha): 0.177 µM
EC50 (hPPAR gamma): 0.13 µM
SMILES: COc1cc(CNC(=O)c2cc(-c3ccc(CC(C)C)cc3)n(C)n2)ccc1OC(C)(C)C(=O)O [Example 14]

EC50 (hPPAR delta): > 25 µM
EC50 (hPPAR alpha): 0.093 µM
EC50 (hPPAR gamma): 0.026 µM
SMILES: Cc1cc(CNC(=O)c2cc(-c3ccc(-c4ccccc4C)cc3)n(C)n2)ccc1OC(C)(C)C(=O)O [Example 31, 2-methyl-2-(2-methyl-4-[({[1-methyl-5-(2′-methylbiphenyl-4-yl)-1H-pyrazol-3-yl]carbonyl}amino)methyl]phenoxy}propanoic acid]

EC50 (hPPAR delta): 5.93 µM
EC50 (hPPAR alpha): 0.192 µM
EC50 (hPPAR gamma): 1.38 µM
SMILES: C=CCn1nc(-c2ccc(C(C)(C)C)cc2)cc1C(=O)NCc1ccc(OC(C)(C)C(=O)O)cc1 [Example 60, 2-({4-[({[3-[4-(1,1-dimethylethyl)phenyl]-1-(2-propen-1-yl)-1H-pyrazol-5-yl]carbonyl}amino)methyl]phenyl}oxy)-2-methylpropanoic acid]

EC50 (hPPAR delta): 4.33 µM
EC50 (hPPAR alpha): 0.067 µM
EC50 (hPPAR gamma): 0.779 µM
SMILES: Cc1cc(CNC(=O)c2cc(-c3cccc(N4CCCC4)c3)nn2C)ccc1OC(C)(C)C(=O)O [Example 23, 2-methyl-2-[(2-methyl-4-{[({1-methyl-3-[3-(1-pyrrolidinyl)phenyl]-1H-pyrazol 5-yl}carbonyl)amino]methyl}phenyl)oxy]propanoic acid]

EC50 (hPPAR delta): 1.12 µM
EC50 (hPPAR alpha): 0.01 µM
EC50 (hPPAR gamma): 0.005 µM
SMILES: Cc1cc(CNC(=O)c2cc(-c3ccc(N4CCCCC4)cc3)n(C)n2)ccc1OC(C)(C)C(=O)O [Example 21]

EC50 (hPPAR delta): 4.02 µM
EC50 (hPPAR alpha): 0.004 µM
EC50 (hPPAR gamma): 0.009 µM
SMILES: Cc1cc(CNC(=O)c2cc(-c3ccc(C(C)C)cc3)n(C)n2)ccc1OC(C)(C)C(=O)O [Example 18]
